Read-outs that look alike come from different tables or passages of the source.

The subject of data set [1] is Vif-dependent APOBEC3G degradation. In words: Vif-Dependent APOBEC3G Degradation Assay. In kind it is cell-based, HIV. The procedure: APOBEC3G-V5-mCherry was stably expressed from the pIRES-P vector in 293T cells under puromycin selection. Fifty ng of plasmid expressing Vif-HA (accession no. AB573087) was transfected into the cells in 384-well format with Turbofect on a liquid handling robot. Four hours after transfection the compounds were added to cells in a range from 0-15 μM. Twenty-four hours after compound addition mCherry fluorescence was read on a BioTek Synergy4 plate reader (ex=587 nm, em=610 nm). Relative fluorescence units (RFU) from compound treated wells were quantified using thresholds set by the −Vif (positive control) and +Vif (negative control).

Another data set concerns 00KE_KER2008 (Subtype A). In words: PBMC Acute Infection, 00KE_KER2008. Format: cell-based, HIV. The procedure: (§1) PHA-stimulated cells from at least two normal donors were pooled (i.e. mixed together), diluted in fresh medium to a final concentration of 1×10^6 cells/mL, and plated in the interior wells of a 96-well round bottom microplate at 50 μL/well (5×10^4 cells/well). Pooling of mononuclear cells from more than one donor was used to minimize the variability observed between individual donors in quantitative and qualitative differences in HIV infection and overall response to the PHA and IL-2 of primary lymphocyte populations. Each plate contained virus control wells (cells plus virus) and experimental wells (drug plus cells plus virus) of either 00KE_KER2008 (Subtype A), IIIB (Subtype B), or 98US_MSC5016 (Subtype C). Test drug dilutions were prepared at a 2×concentration and 100 μL of each concentration was placed in appropriate wells. Fifty μL of a predetermined dilution of virus stock was placed in each test well (final MOI≅0.1). After this period, cell-free supernatant samples were collected for analysis of reverse transcriptase (RT) activity with an RT assay. […] In the Table below SI50=CC50/EC50 and SI90=CC90/EC90.

The next data set has as its system IIIB (Subtype B). The data set can be described thus: PBMC Acute Infection, IIIB. Format: cell-based, HIV. On the procedure: as §1
The subject of a further data set is 98US_MSC5016 (Subtype C). In words: PBMC Acute Infection, 98US_MSC5016. Format: cell-based, HIV. The procedure:
as §1

Data set [2] can be described thus: PBMC Acute Infection, cytotoxicity (CC50/CC90). Format: cell-based. The conditions noted are these: human. The procedure: as §1
Data set [3] has as its target T1, pNL4-3 Vif (Vif multimerization) (Human immunodeficiency virus type 1 group M subtype B, UniProt P12504).
T1 construct: expressed in transfected cells; host or cells: HEK293T
The data set can be described thus: Vif FqRET Multimerization Assay. In kind it is cell-based, HIV. An excerpt:
The quenched fluorescence resonance energy transfer (FqRET) cell-based assay utilized expression of pNL4-3 Vif (accession no. M19921) tagged separately with either a EGFP fluorophore (EGFP-V5-Vif) or a REACh2 quencher (Vif-HA-REACh2) in the pIRES-P vector. The Vif multimerization assay was established through robotic co-transfection of HEK293T (293T) cells with Turbofect (Thermo) and optimized for input plasmid ratio (1:4, fluorophore to quencher) to achieve maximum quench of fluorescent signal. EGFP fluorescence was quantified 24 hours after transfection with a BioTek Synergy4 plate reader (ex=485 nm, em=528 nm) followed by the addition of 0-30 μM compound. The plates were read a second time 24 hours after compound addition. The differential between the first and second read in each well was quantified relative to the DMSO control to determine the change in relative fluorescence units (ΔRFU)
The interaction of 2 molecules of Vif (i.e. dimerization) enables quenching of Enhanced Green Fluorescent Protein (EGFP) signal by Resonance Energy Accepting Chromophore 2 (REACh2), a dark mutant of yellow fluorescent protein that is capable of accepting the EGFP donor fluorescence and quenching its signal without an acceptor signal.

In another data set the test system is PBMCs. The data set can be described thus: PBMC Acute Infection, cytotoxicity (CC50/CC90). In kind it is cell-based. The procedure:
as §1

The target of data set [4] is T2, topoisomerase I (TOP1) (Homo sapiens, UniProt P11387).
T2 sequence (P11387 1-765): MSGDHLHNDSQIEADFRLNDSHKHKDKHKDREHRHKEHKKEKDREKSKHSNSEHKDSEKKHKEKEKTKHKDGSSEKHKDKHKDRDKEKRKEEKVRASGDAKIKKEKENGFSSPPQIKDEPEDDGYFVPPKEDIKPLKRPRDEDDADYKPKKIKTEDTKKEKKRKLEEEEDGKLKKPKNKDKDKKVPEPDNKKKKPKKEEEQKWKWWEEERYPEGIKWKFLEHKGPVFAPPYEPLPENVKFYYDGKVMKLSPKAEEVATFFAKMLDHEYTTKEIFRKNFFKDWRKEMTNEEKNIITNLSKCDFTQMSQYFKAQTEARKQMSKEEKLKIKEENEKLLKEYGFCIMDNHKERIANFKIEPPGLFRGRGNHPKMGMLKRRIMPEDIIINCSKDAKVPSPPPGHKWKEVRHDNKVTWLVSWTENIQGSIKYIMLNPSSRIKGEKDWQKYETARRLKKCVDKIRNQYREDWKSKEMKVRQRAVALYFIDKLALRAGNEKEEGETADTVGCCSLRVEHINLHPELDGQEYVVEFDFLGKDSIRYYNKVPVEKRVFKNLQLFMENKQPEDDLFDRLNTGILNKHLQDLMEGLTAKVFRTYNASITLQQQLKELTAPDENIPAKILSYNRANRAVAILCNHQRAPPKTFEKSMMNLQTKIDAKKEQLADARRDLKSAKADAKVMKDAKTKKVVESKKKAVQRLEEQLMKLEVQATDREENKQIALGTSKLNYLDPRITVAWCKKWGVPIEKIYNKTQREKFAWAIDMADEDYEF
In words: topoisomerase I inhibition.

Data set [5] deals with T3, recombinant HIV (pNL4-3) heterodimeric (p66/p51) Reverse Transcriptase (Human immunodeficiency virus type 1 group M subtype B, UniProt P12497).
T3 construct: purified recombinant HIV (pNL4-3) heterodimeric (p66/p51) Reverse Transcriptase (RT); purchased
In words: reverse transcriptase assay. In kind it is biochemical. On the procedure:
For the assays listed in Table I, the integrase assay was conducted using the XpressBio HIV-1 Integrase Assay Kit according to the manufacture's protocol. The protease assay was conducted with the Anthranilyl (Abz)-HIV Protease Substrate (Bachem H-2992), a hexapeptide FRET substrate derived from the p24/p15 cleavage site of the viral gag-pol poly-protein, which allows the screening of potential HIV protease inhibitors. 1 mM Abz-Substrate was diluted with Assay Buffer to a working stock of 20 μM. A 50 μM stock HIV-1 protease (received from Sook-kyung Lee (UNC)) was diluted with Assay Buffer (50 mM HEPES, pH 6.8, 150 mM NaCl, and 1% DMSO) to a working stock of 100 nM. 2 μl 100 nM HIV-1 Protease along with 2 uL 20 μM Abz Substrate was added into each well and incubated at room temperature (avoiding light) for 1 hour before being read on an Envision plate reader (Perkin Elmer) excitation at 280 nm, emission at >435 nm. The reverse transcriptase assay utilized purified recombinant HIV (pNL4-3) heterodimeric (p66/p51) Reverse Transcriptase (RT) that was purchased from a commercially available source. The assay was performed in 96-well filter plate, where RT activity was determined by the incorporation of radiolabeled deoxyribonucleotides into the newly synthesized DNA strand. The RT reaction mixture contained in vitro transcribed viral RNA derived from the HIV-1NL4-3 5′-LTR region (position 454 to 652) and primer that is complementary to the primer binding site (PBS, nucleotide residues nucleotides 636 to 652), radiolabeled deoxyribonucleotide, dNTPs and reverse transcriptase. Briefly, the reaction was carried out in a volume of 50 μl containing 50 mM Tris HCl, pH 7.8, 50 mM KCl, 5 mM MgCl2, 1 mM DTT, 50 μM each of dATP, dCTP, dGTP, 50 nM dTTP, 1 μCi of [^3H] dTTP (70-90 Ci/mM) and 5 nM template/primer. The reaction was initiated by the addition of 10 nM RT. For compound screening, serially diluted test articles were added to the reaction followed by the addition of RT. The reaction mixture was incubated at 37° C. for 1 h, and then quenched by the addition of ice-cold trichloroacetic acid (TCA) to the final concentration of 10%. The plate was incubated at 4° C. for 1 h to precipitate the synthesized DNA, then rinsed 3-times with 10% TCA and 1 time with 70% ethanol. After addition of 25 μl scintillation fluid to completely dried wells, radioactivity is counted by MicroBeta scintillation counter. The reduction of radioactivity represents the potency of compound inhibition.

Data set [6] concerns the target T2, topoisomerase I (TOP1). Conditions: comparison statement; cited from earlier work.
Where [7] appears, read: Human immunodeficiency virus 1, read-out: A3G degradation at.
[8] abbreviates: Human immunodeficiency virus 1, PBMC.
Where [9] appears, read: Human immunodeficiency virus 1, IIIB.
[10] abbreviates: row of isolate 00KE-KER2008, subtype A.
[11] abbreviates: row of isolate 98US_MSC5016, subtype C.

T1 sequence (P12504 whole entry): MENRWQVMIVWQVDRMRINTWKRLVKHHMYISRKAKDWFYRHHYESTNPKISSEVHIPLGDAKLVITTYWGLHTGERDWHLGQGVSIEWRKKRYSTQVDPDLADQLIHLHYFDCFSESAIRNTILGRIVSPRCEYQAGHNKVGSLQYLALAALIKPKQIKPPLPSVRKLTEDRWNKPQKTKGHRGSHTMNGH

As for `CCc1c2c(nc3ccc(OC(=O)N4CCC(N5CCCCC5)CC4)cc13)-c1cc3c(c(=O)n1C2)CNC(=O)[C@]3(O)CC` [Irino-L, (S)-4,11-diethyl-4-hydroxy-3,14-dioxo-1,2,3,4,12,14-hexahydroquinolino[2′,3′:3,4]pyrrolo[1,2-b][2,7]naphthyridin-9-yl [1,4′-bipiperidine]-1′-carboxylate], the EC50 was 5000 nM in [1] (setting [7]), 2260 nM in the data set with 00KE_KER2008 (Subtype A) (setting [8]), 2290 nM with IIIB (Subtype B) (setting [9]) and 1850 nM in the data set on 98US_MSC5016 (Subtype C) (setting [8]). For the same molecule, the EC90 – broadly, the point of the concentration-response curve where the effect stands at 90% – with 00KE_KER2008 (Subtype A) (setting [8]) turned out to be 7710 nM; in the data set with IIIB (Subtype B) (setting [9]), 7920 nM; in the data set on 98US_MSC5016 (Subtype C) (setting [8]), 7110 nM. The CC50 (commonly the concentration giving 50% cytotoxicity) in [2] (setting [10]) came to 17700 nM. Further, the CC90 in [2] (setting [10]) worked out at 82800 nM.

Consider `CC[C@@]1(O)C(=O)NCc2c1cc1n(c2=O)Cc2cc3c(N)cccc3nc2-1` [Compound O5-9A, (S)-10-Amino-4-ethyl-4-hydroxy-1,2-dihydroquinolino[2′,3′:3,4]pyrrolo[1,2-b][2,7]naphthyridine-3,14(4H,12H)-dione], for which the EC50 stood at 3870 nM in data set [3]; 1200 nM in [1] (Human immunodeficiency virus 1, HEK-293T, 24 h, read-out: EC50, A3G Degradation Assay); 1000 nM in [1] (setting [7]); 50 nM in the data set with 00KE_KER2008 (Subtype A) (Human immunodeficiency virus 1, PBMC, isolate 00KE-KER2008, subtype A, RT activity readout, read-out: EC50); 150 nM in the data set on IIIB (Subtype B) (Human immunodeficiency virus 1, isolate IIIB, subtype B, RT activity readout, read-out: EC50); 60 nM in the data set on 98US_MSC5016 (Subtype C) (Human immunodeficiency virus 1, PBMC, isolate 98US_MSC5016, subtype C, RT activity readout, read-out: EC50). Further, the “Vif multimerization (result in words)” value in [3] is reported as “block”. For the same molecule, the “Vif-dependent A3G degradation (result in words)” value in data set [1] is reported as “block”. Further, the EC90 in the data set with 00KE_KER2008 (Subtype A) (Human immunodeficiency virus 1, PBMC, isolate 00KE-KER2008, subtype A, RT activity readout, read-out: EC90) is 230 nM; in the data set on IIIB (Subtype B) (Human immunodeficiency virus 1, isolate IIIB, subtype B, RT activity readout, read-out: EC90), 310 nM; in the data set on 98US_MSC5016 (Subtype C) (Human immunodeficiency virus 1, PBMC, isolate 98US_MSC5016, subtype C, RT activity readout, read-out: EC90), 220 nM. Besides, the CC50 in data set [2] (setting [10]) was found to be 9320 nM; in data set [2] (setting [11]) it was 9320 nM; in [2] (row of isolate IIIB, subtype B), 10000 nM. The CC90 in data set [2] (setting [10]) is > 100000 nM; in the data set with PBMCs (setting [11]) it was > 100000 nM; in the data set with PBMCs (row of isolate IIIB, subtype B), > 100000 nM. The “inhibition of topoisomerase I (TOP1) (result in words)” value against topoisomerase I (TOP1) [4] is “do not inhibit”.

With `Cc1ccnc2c1NC(=O)c1cccnc1N2C1CC1` [nevirapine, reference compound], the IC50 – broadly, the concentration that inhibits the measured activity by half – in data set [5] was determined as 230 nM.

For `CC[C@@]1(O)C(=O)OCc2c1cc1n(c2=O)Cc2cc3ccccc3nc2-1` [camptothecin], on topoisomerase I (TOP1) [6], the “inhibition of topoisomerase I (TOP1) (result in words)” value is “inhibit”.

The values are drawn from US20220000860A1, “COMPOUNDS, COMPOSITIONS, AND METHODS FOR TREATING HUMAN IMMUNODEFICIENCY VIRUS” (OYAGEN, INC., priority 2017, published 2022).
